Data as given in US20230081679A1, “SURFACTANT VESICLES FOR VACCINE FORMULATION, TARGETED DRUG DELIVERY, AND TRANSFECTION” (University of Maryland, College Park, priority 2021, published 2023).
≈ marks a conversion by molar mass, not a printed value. Where “and” joins values, the source holds several entries; their conditions need not be identical. Equal entries are not always repeated.

Legend:
[1] = Encapsulation in catanionic SVs (gel filtration, then NMR or ICP-AES); assay type: physicochemical; settings: chemotherapeutic drugs in SDBS-rich SVs, PBS 1×
Procedure: Vesicles were formed in the presence of several different sugars, purified by gel filtration, and the encapsulated sugar concentration measured by NMR (Table 3).
Table 6 summarizes the EE and drug concentration achieved with each of the chemotherapeutic agents under the standard SDBS-rich SVs formulation method.
The gel was flushed with two column-volumes of PBS 1×. Next, 1.0 mL of crude vesicle suspension was loaded onto the column and gravity fed into the gel. 2.0 mL of PBS 1× eluent was then added to the column and the fractions discarded. 1.5 mL of PBS 1× was then added to the column and the fractions collected to yield purified opaque light blue vesicles. The column was cleaned with 2.0 mL of 0.1% Triton X-100 in water followed by two column volumes of PBS 1×.

[2] = within detection limits, after 11 days
Procedure: To assess the rate of encapsulated substrate release, dialysis was initially considered. […] The assay was to remove aliquots from SVs-encapsulated formulations at time intervals and re-purify the aliquot by size-exclusion chromatography (SEC). Vesicle fractions elute in the initial fractions while release carbohydrate is retained on the column and elutes in the later fractions. The quantity of carbohydrate released was determined by ^1H-NMR (FIG. 28).
Using the SEC method, the initial rate of glucose release was analyzed for vesicle encapsulated glucose solutions at varying concentrations. […] Therefore, a simple model with first-order release kinetics across the vesicle membrane (Eq. 1) was used, from which the rate law (Eq. 2) can be derived, where [Sugar]in and [Sugar]out are the sugar concentrations inside and outside the vesicle, respectively.
The release for each vesicle-encapsulated sugar preparation was monitored for at least two half-lives (monosaccharides) and at least one half-life (disaccharides and maltotriose). The release profile for each substrate was then fit to Eq. 3 by a least squares method, and the first order rate constant k1 was calculated. The reported uncertainties represent the standard deviation in the measured k1 of three separate batches of vesicle-encapsulated sugar.
The t1/2 was calculated from each k1, and the permeability coefficient (P) was calculated using k1 and the vesicle size (from DLS experiments) according to: […]

A549 = test: Empty vesicles vs. DOX-vesicles on cell lines; assay type: cell-based; settings: Homo sapiens; A549 non-small cell lung cancer
Excerpt: (§1) Empty vesicles vs. DOX-vesicles. 3 cell lines: MDA-MB-231: human breast cancer; MCF-7: human breast cancer; A549: non-small cell lung cancer.

MDA-MB-231 = test: Empty vesicles vs. DOX-vesicles on cell lines; assay type: cell-based; settings: MDA-MB-231 human breast cancer
Excerpt: as §1

[3] = cited from earlier work
[4] = Vesicle radius and PDI by DLS; settings: drug-loaded catanionic SVs
Procedure: To measure the average size of the vesicles, 100 μL of the solution was taken and diluted to 1 mL with water and analyzed using dynamic light scattering (DLS).

COc1cccc2c1C(=O)c1c(O)c3c(c(O)c1C2=O)C[C@@](O)(C(=O)CO)C[C@@H]3O[C@H]1C[C@H](N)[C@H](O)[C@H](C)O1 [Doxorubicin, doxorubicin]
EE (%) [1]: 61%
[Drug], mM (in purified vesicles) [1]: 0.15 ± 0.02 mM
EE (%) ([1]; listed as doxorubicin): 60% and 61%
release from vesicles after 11 days [2]: no release
IC50 (A549): 0.02 mg/L (≈ 0.0368 µM)
IC50 (MDA-MB-231): 0.06 mg/L (≈ 0.11 µM)
pKa [3]: 8.4
Vesicle PDI [4]: 0.25
Vesicle Radius (nm) [4]: 91 nm
